Where a name gives a salt, the structure may show the parent alone.
Legend:
[1] = tested on: human multiple myeloma RPMI8226 cells; experiment: Inhibitory activity against human multiple myeloma RPMI8226 cell growth (CellTiter-Glo); format: cell-based; details: Homo sapiens, RPMI-8226, 192 h, 1 μM test compound, cultured for 8 days; read-out: Percent inhibition of RPMI8226 cell growth (%)
Protocol: The compound of the present invention was evaluated for its inhibitory activity against human multiple myeloma RPMI8226 cell growth by the following method.
A suspension of human multiple myeloma RPMI8226 cells (purchased from the Health Protection Agency) was inoculated at 40 μL (300 cells/well) to a 384-well plate and cultured at 37° C. for 1 day in a 5% CO2 incubator. After the culture, each test compound solution was added thereto at a test concentration of 1 μM using TECAN D300, and the cells were further cultured for 8 days. After the culture, CellTiter-Glo™ Luminescent Cell Viability Assay reagent (Promega) was added at 40 μL/well to a 384-well plate, and the amount of luminescence was measured using a luminometer. Inhibitory activity against human multiple myeloma RPMI8226 cell growth (percent inhibition (%)) of the test compound was calculated according to the following formula, which is based on the hypothesis that the amount of residual ATP reflects the number of cells. In this formula, 100% control represents the amount of luminescence from a well with only 0.1% DMSO added. Percent inhibition (%)=(1−(amount of luminescence of the test compound)÷(100% control))×100

CDK8/CycC = target: T1, CDK8/CycC (Homo sapiens, UniProt P49336); experiment: CDK8 inhibitory activity (Kinase Tracer-236 / Eu-anti-GST fluorescence assay); format: binding; parameters: Percent inhibition of CDK8 activity (%): concentration or dose not given beside the values; details: test compound concentration given as '1 1.1.1\4' [sic]
T1 construct: purchased Carna Biosciences
T1 sequence (P49336 whole entry): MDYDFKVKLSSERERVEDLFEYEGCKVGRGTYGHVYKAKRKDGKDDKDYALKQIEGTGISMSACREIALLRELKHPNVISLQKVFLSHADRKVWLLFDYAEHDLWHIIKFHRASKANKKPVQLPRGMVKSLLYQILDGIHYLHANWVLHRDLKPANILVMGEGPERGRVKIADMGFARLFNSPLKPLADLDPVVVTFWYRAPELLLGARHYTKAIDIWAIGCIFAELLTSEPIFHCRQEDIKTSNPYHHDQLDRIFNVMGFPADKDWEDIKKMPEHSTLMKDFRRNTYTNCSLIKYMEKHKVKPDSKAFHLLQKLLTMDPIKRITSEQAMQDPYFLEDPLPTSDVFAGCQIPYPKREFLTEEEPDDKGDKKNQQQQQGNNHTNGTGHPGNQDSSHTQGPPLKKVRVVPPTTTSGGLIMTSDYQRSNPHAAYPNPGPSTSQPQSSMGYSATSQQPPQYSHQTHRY
T1 sequence (P24863 whole entry partner): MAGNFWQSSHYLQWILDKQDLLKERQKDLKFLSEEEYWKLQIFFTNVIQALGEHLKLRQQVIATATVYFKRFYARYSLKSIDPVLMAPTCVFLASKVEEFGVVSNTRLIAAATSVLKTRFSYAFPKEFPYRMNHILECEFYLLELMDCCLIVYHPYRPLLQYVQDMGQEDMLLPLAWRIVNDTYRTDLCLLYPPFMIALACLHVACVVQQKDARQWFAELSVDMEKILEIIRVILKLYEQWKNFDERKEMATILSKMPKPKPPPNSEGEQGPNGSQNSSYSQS
Protocol: (§1) The compound of the present invention was evaluated for its CDK8 inhibitory activity and CDK19 inhibitory activity by the following method. […] The primary diluted solution was dispensed in the amount of 2 μL/well to a 384-well plate, and then, a mixed solution of Eu^3+ Cryptate conjugated mouse monoclonal antibody anti-glutathione S-transferase (Cisbio) diluted 267-fold with an assay buffer and 60 nM Kinase Tracer-236 (Life technologies) was added thereto at 2 μL/well. […] After the addition, the plate was left standing at room temperature for 1 hour, and then, the fluorescence intensity (excitation wavelength 320 nm, fluorescence wavelength 615 nm, 665 nm, delay time 50 μsec) was measured using ann EnVision plate reader (PerkinElmer). The percent inhibition of CDK8 or CDK19 activity by the test compound can be calculated according to the following formula, wherein the fluorescence intensity of a reaction solution in the absence of compound is defined as the control, and the fluorescence intensity of a reaction solution in the presence of 10 μM of control compound is defined as the blank.

CDC2L6/CycC (CDK19) = target: T2, CDC2L6/CycC (CDK19) (Homo sapiens, UniProt Q9BWU1); experiment: CDK19 inhibitory activity (Kinase Tracer-236 / Eu-anti-GST fluorescence assay); format: binding; parameters: Percent inhibition of CDK19 activity (%): concentration or dose not given beside the values; details: test compound concentration given as '1 1.1.1\4' [sic]
T2 construct: purchased Carna Biosciences Inc
T2 sequence (Q9BWU1 whole entry): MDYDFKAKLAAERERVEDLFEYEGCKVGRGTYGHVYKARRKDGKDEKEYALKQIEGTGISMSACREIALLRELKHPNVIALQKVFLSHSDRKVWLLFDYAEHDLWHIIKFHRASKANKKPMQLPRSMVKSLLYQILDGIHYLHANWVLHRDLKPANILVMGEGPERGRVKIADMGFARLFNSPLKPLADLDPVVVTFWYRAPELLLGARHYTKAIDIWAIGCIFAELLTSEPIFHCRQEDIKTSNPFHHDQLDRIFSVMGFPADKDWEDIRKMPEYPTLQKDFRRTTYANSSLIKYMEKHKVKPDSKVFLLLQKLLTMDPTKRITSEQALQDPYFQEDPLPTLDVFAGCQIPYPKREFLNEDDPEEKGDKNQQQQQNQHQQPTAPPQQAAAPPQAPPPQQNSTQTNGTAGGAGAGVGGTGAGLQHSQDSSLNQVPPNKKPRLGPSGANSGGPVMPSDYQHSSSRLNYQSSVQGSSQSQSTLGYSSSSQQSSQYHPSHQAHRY
T2 sequence (P24863 whole entry partner): as the sequence (P24863 whole entry partner) above
Protocol: as §1

Question: Which inhibition at 1 µM [1] does the source give for `CNc1ccc(Oc2sc(C(N)=O)c3c2-c2sncc2CC3)c(C)n1` [Example 27, 8-((2-Methyl-6-(methylamino)pyridin-3-yl)oxy)-4,5-dihydrothieno[3,4-g][1,2]benzothiazole-6-carboxamide monohydrochloride] here?
Answer: 81%

Question: What about the “Percent inhibition of CDK8 activity (%)” value (CDK8/CycC) of the same compound?
Answer: 102%

Question: What about the “Percent inhibition of CDK19 activity (%)” value (CDC2L6/CycC (CDK19)) of the same compound?
Answer: 102%

Question: Which results are given for `CC(=O)N(C)c1ccc(Oc2sc(C(N)=O)c3c2-c2sncc2CC3)c(C)n1` [Example 28, 8-((6-(Acetyl(methyl)amino)-2-methylpyridin-3-yl)oxy)-4,5-dihydrothieno[3,4-g][1,2]benzothiazole-6-carboxamide]?
Answer: inhibition at 1 µM [1]: 63%; Percent inhibition of CDK8 activity (%) (CDK8/CycC): 101%; Percent inhibition of CDK19 activity (%) (CDC2L6/CycC (CDK19)): 99%

Question: With `Cc1nc(N)ccc1Oc1sc(C(N)=O)c2c1-c1sncc1CC2` [Example 29, 8-((6-Amino-2-methylpyridin-3-yl)oxy)-4,5-dihydrothieno[3,4-g][1,2]benzothiazole-6-carboxamide] as the compound, how does the inhibition at 1 µM [1] read?
Answer: 70%

Question: What about the “Percent inhibition of CDK8 activity (%)” value (CDK8/CycC) of the same compound?
Answer: 98%

Question: What about the “Percent inhibition of CDK19 activity (%)” value (CDC2L6/CycC (CDK19)) of the same compound?
Answer: 100%

Question: `Cc1nc(NC(=O)C2CC2)ccc1Oc1sc(C(N)=O)c2c1-c1sncc1CC2` [Example 30, 8-((6-((Cyclopropylcarbonyl)amino)-2-methylpyridin-3-yl)oxy)-4,5-dihydrothieno[3,4-g][1,2]benzothiazole-6-carboxamide] was tested. Which inhibition at 1 µM [1] did it give?
Answer: 71%

Question: What about the “Percent inhibition of CDK8 activity (%)” value (CDK8/CycC) of the same compound?
Answer: 104%

Question: And the “Percent inhibition of CDK19 activity (%)” value (CDC2L6/CycC (CDK19))?
Answer: 102%

Question: How did the inhibition at 1 µM [1] turn out when `Cc1nc(NC(=O)C2(O)CC2)ccc1Oc1sc(C(N)=O)c2c1-c1sncc1CC2` [Example 31, 8-((6-(((1-Hydroxycyclopropyl)carbonyl)amino)-2-methylpyridin-3-yl)oxy)-4,5-dihydrothieno[3,4-g][1,2]benzothiazole-6-carboxamide] was run?
Answer: 59%

Question: What about the “Percent inhibition of CDK8 activity (%)” value (CDK8/CycC) of the same compound?
Answer: 103%

Question: What about the “Percent inhibition of CDK19 activity (%)” value (CDC2L6/CycC (CDK19)) of the same compound?
Answer: 101%

Question: `NC(=O)c1sc(Oc2ccc(=O)[nH]c2)c2c1CCc1cnsc1-2` [Example 33, 8-((6-Oxo-1,6-dihydropyridin-3-yl)oxy)-4,5-dihydrothieno[3,4-g][1,2]benzothiazole-6-carboxamide] was tested. Which inhibition at 1 µM [1] did it give?
Answer: 69%

Question: And the “Percent inhibition of CDK8 activity (%)” value (CDK8/CycC)?
Answer: 101%

Question: And the “Percent inhibition of CDK19 activity (%)” value (CDC2L6/CycC (CDK19))?
Answer: 99%

Question: `CON(C)C(=O)c1sc(Oc2cccnc2C)c2c1CCc1cnsc1-2` [Example 34, N-Methoxy-N-methyl-8-((2-methylpyridin-3-yl)oxy)-4,5-dihydrothieno[3,4-g][1,2]benzothiazole-6-carboxamide] was tested. Which inhibition at 1 µM [1] did it give?
Answer: 50%

Question: What about the “Percent inhibition of CDK8 activity (%)” value (CDK8/CycC) of the same compound?
Answer: 100%

Question: What about the “Percent inhibition of CDK19 activity (%)” value (CDC2L6/CycC (CDK19)) of the same compound?
Answer: 98%

Question: With `Cc1ncccc1Oc1sc(C(=O)Nc2ncco2)c2c1-c1sncc1CC2` [Example 37, 8-((2-Methylpyridin-3-yl)oxy)-N-(1,3-oxazol-2-yl)-4,5-dihydrothieno[3,4-g][1,2]benzothiazole-6-carboxamide] as the compound, how does the inhibition at 1 µM [1] read?
Answer: 73%

Question: And the “Percent inhibition of CDK8 activity (%)” value (CDK8/CycC)?
Answer: 95%

Question: And the “Percent inhibition of CDK19 activity (%)” value (CDC2L6/CycC (CDK19))?
Answer: 94%

Question: Which inhibition at 1 µM [1] does the source give for `Cc1ncccc1Oc1sc(C(=O)NO)c2c1-c1sncc1CC2` [Example 38, N-Hydroxy-8-((2-methylpyridin-3-yl)oxy)-4,5-dihydrothieno[3,4-g][1,2]benzothiazole-6-carboxamide] here?
Answer: 67%

Question: And the “Percent inhibition of CDK8 activity (%)” value (CDK8/CycC)?
Answer: 97%

Question: What about the “Percent inhibition of CDK19 activity (%)” value (CDC2L6/CycC (CDK19)) of the same compound?
Answer: 100%

Question: For `CC(=O)c1sc(Oc2cccnc2C)c2c1CCc1cnsc1-2` [Example 39, 1-(8-((2-Methylpyridin-3-yl)oxy)-4,5-dihydrothieno[3,4-g][1,2]benzothiazol-6-yl)ethanone], which inhibition at 1 µM [1] is on record?
Answer: 60%

Question: What about the “Percent inhibition of CDK8 activity (%)” value (CDK8/CycC) of the same compound?
Answer: 97%

Question: And the “Percent inhibition of CDK19 activity (%)” value (CDC2L6/CycC (CDK19))?
Answer: 95%

Question: `Cc1ncccc1Oc1sc(C#N)c2c1-c1sncc1CC2` [Example 40, 8-((2-Methylpyridin-3-yl)oxy)-4,5-dihydrothieno[3,4-g][1,2]benzothiazole-6-carbonitrile] was tested. Which inhibition at 1 µM [1] did it give?
Answer: 61%

Question: What about the “Percent inhibition of CDK8 activity (%)” value (CDK8/CycC) of the same compound?
Answer: 69%

Question: What about the “Percent inhibition of CDK19 activity (%)” value (CDC2L6/CycC (CDK19)) of the same compound?
Answer: 58%

Question: Which inhibition at 1 µM [1] does the source give for `Cc1ncccc1Oc1sc(C(N)=O)c2c1-c1snnc1CC2` [Example 43, 8-((2-Methylpyridin-3-yl)oxy)-4,5-dihydrothieno[3,4-g][1,2,3]benzothiadiazole-6-carboxamide] here?
Answer: 49%

Question: And the “Percent inhibition of CDK8 activity (%)” value (CDK8/CycC)?
Answer: 103%

Question: And the “Percent inhibition of CDK19 activity (%)” value (CDC2L6/CycC (CDK19))?
Answer: 93%

Question: What does the source list for `Cc1nn(C)cc1Oc1sc(C(N)=O)c2c1-c1sncc1CC2` [Example 47, 8-((1,3-Dimethyl-1H-pyrazol-4-yl)oxy)-4,5-dihydrothieno[3,4-g][1,2] benzothiazole-6-carboxamide]?
Answer: inhibition at 1 µM [1]: 57%; Percent inhibition of CDK8 activity (%) (CDK8/CycC): 105%; Percent inhibition of CDK19 activity (%) (CDC2L6/CycC (CDK19)): 100%

Question: For `CC(C)S(=O)(=O)c1ccc(Oc2sc(C(N)=O)c3c2-c2sncc2CC3)cc1` [Example 50, 8-(4-(isopropylsulfonyl)phenoxy)-4,5-dihydrothieno[3,4-g][1,2]benzothiazole-6-carboxamide], which inhibition at 1 µM [1] is on record?
Answer: 58%

Question: What about the “Percent inhibition of CDK8 activity (%)” value (CDK8/CycC) of the same compound?
Answer: 99%

Question: What about the “Percent inhibition of CDK19 activity (%)” value (CDC2L6/CycC (CDK19)) of the same compound?
Answer: 99%

Question: With `CCCSc1sc(C(N)=O)c2c1-c1sncc1CC2` [Example 52, 8-(Propylsulfanyl)-4,5-dihydrothieno [3,4-g][1,2]benzothiazole-6-carboxamide] as the compound, how does the inhibition at 1 µM [1] read?
Answer: 65%

Question: What about the “Percent inhibition of CDK8 activity (%)” value (CDK8/CycC) of the same compound?
Answer: 98%

Question: And the “Percent inhibition of CDK19 activity (%)” value (CDC2L6/CycC (CDK19))?
Answer: 95%

Question: How did the inhibition at 1 µM [1] turn out when `CS(=O)(=O)c1ccc(Oc2sc(C(N)=O)c3c2-c2sncc2CC3)cc1` [Example 53, 8-(4-(Methylsulfonyl)phenoxy)-4,5-dihydrothieno[3,4-g][1,2]benzothiazole-6-carboxamide] was run?
Answer: 61%

Question: What about the “Percent inhibition of CDK8 activity (%)” value (CDK8/CycC) of the same compound?
Answer: 100%

Question: What about the “Percent inhibition of CDK19 activity (%)” value (CDC2L6/CycC (CDK19)) of the same compound?
Answer: 99%

Question: `Cc1ncccc1Oc1sc(C(=O)NOCc2ccccc2)c2c1-c1sncc1CC2` [Example 58, N-(Benzyloxy)-8-((2-methylpyridin-3-yl)oxy)-4,5-dihydrothieno[3,4-g][1,2] benzothiazole-6-carboxamide] was tested. Which inhibition at 1 µM [1] did it give?
Answer: 49%

Question: What about the “Percent inhibition of CDK8 activity (%)” value (CDK8/CycC) of the same compound?
Answer: 100%

Question: What about the “Percent inhibition of CDK19 activity (%)” value (CDC2L6/CycC (CDK19)) of the same compound?
Answer: 101%

Question: For `Cc1ncccc1Oc1sc(C(=O)Nn2cccc2)c2c1-c1sncc1CC2` [Example 87, 8-((2-Methylpyridin-3-yl)oxy)-N-(1H-pyrrol-1-yl)-4,5-dihydrothieno [3,4-g][1,2]benzothiazole-6-carboxamide], which inhibition at 1 µM [1] is on record?
Answer: 48%

Question: What about the “Percent inhibition of CDK8 activity (%)” value (CDK8/CycC) of the same compound?
Answer: 100%

Question: What about the “Percent inhibition of CDK19 activity (%)” value (CDC2L6/CycC (CDK19)) of the same compound?
Answer: 100%

Question: What does the source list for `NC(=O)c1sc(Oc2ccc(S(F)(F)(F)(F)F)cc2)c2c1CCc1cnsc1-2` [Example 89]?
Answer: inhibition at 1 µM [1]: 54%; Percent inhibition of CDK8 activity (%) (CDK8/CycC): 102%; Percent inhibition of CDK19 activity (%) (CDC2L6/CycC (CDK19)): 99%

Question: How did the inhibition at 1 µM [1] turn out when `NC(=O)c1sc(Oc2ccc(C(F)(F)F)cc2)c2c1CCc1cnsc1-2` [Example 90] was run?
Answer: 55%

Question: And the “Percent inhibition of CDK8 activity (%)” value (CDK8/CycC)?
Answer: 102%

Question: And the “Percent inhibition of CDK19 activity (%)” value (CDC2L6/CycC (CDK19))?
Answer: 102%

Question: Which inhibition at 1 µM [1] does the source give for `CN(C)C(=O)c1ccc(Oc2sc(C(N)=O)c3c2-c2sncc2CC3)cn1` [Example 91] here?
Answer: 58%

Question: What about the “Percent inhibition of CDK8 activity (%)” value (CDK8/CycC) of the same compound?
Answer: 90%

Question: What about the “Percent inhibition of CDK19 activity (%)” value (CDC2L6/CycC (CDK19)) of the same compound?
Answer: 95%

Question: How did the inhibition at 1 µM [1] turn out when `NC(=O)c1sc(Oc2cncc(Br)c2)c2c1CCc1cnsc1-2` [Example 92, 8-((5-Bromopyridin-3-yl)oxy)-4,5-dihydrothieno[3,4-g][1,2]benzothiazole-6-carboxamide] was run?
Answer: 58%

Question: What about the “Percent inhibition of CDK8 activity (%)” value (CDK8/CycC) of the same compound?
Answer: 89%

Question: And the “Percent inhibition of CDK19 activity (%)” value (CDC2L6/CycC (CDK19))?
Answer: 95%

Reference: US9745325B2, “Fused heterocyclic compound” (Takeda Pharmaceutical Company Limited, priority 2014, dated 2017)
